Reference: patent publication USRE48805E1, “Method for cancer targeting treatment and detection of arginine using albumin-binding arginine deiminase fusion protein” (Vision Global Holdings Ltd., priority 2013, dated 2021)

Experiments:
[1] = test system: Mia-paca-2 pancreatic cancer cell xenografts; test: In vivo efficacy on Mia-paca-2 pancreatic cancer cell xenografts; set-up: species or system Nude balb/c mice (human pancreatic cancer xenograft); conditions: 100 mg/kg once a week, intraperitoneal, end of the time course
Method: Nude balb/c mice (4-6 weeks) are used and they are allowed to acclimatize for a week before the treatment. Mice are inoculated subcutaneously with 2×10^6 cancer cells in 100 μl of 1:1 PBS:Matrigel. Matrigel is used to augment the growth of tumors. Two weeks later, the mice are randomly separated into four groups of 4 animals in each group. Mice are intraperitoneally administered with PBS (control), AAD (5 U; twice a week), Gemcitabine, Gem (100 mg/kg; once a week) or AAD+Gem (a combination of both AAD and Gem) in 200 μl PBS. Tumor size is measured by caliper and tumor volume is calculated using formula: (length×width^2)/2. Body weight is measured every week. After the mice are sacrificed by end of the time course, the tumors are excised and weighed. […] The difference in the tumor size between control and AAD fusion protein-treatment group is about 60% at Day 28.

[2] = test system: 22Rv1 prostate cancer cell xenografts; test: In vivo efficacy on 22Rv1 prostate cancer cell xenografts; set-up: species or system Nude balb/c mice (human prostate cancer xenograft); conditions: 10 mg/kg once a week, intraperitoneal
Method: Nude balb/c mice (4-6 weeks) are used and they are allowed to acclimatize for a week before the treatment. Mice are inoculated subcutaneously with 3×10^6 cancer cells in 100 μl PBS. Two weeks later, the mice are randomly separated into four groups of 5 animals in each group. Mice are intraperitoneally administered with PBS (control), AAD (5 U; twice a week), Docetaxel, DTX (10 mg/kg; once a week) or AAD+DTX (a combination of both AAD and DTX) in 200 ul PBS. Tumor size is measured by caliper and tumor volume is calculated using formula: (length×width^2)/2. Body weight is measured every week. After the mice are sacrificed by end of the time course, the tumors are excised and weighed.
The difference in the tumor size between control and AAD fusion protein- or DTX-treatment groups are about 55% and 54% at Day 22, respectively. Besides, the combination of AAD fusion protein and DTX-treatment group has a synergistic effect on tumor growth inhibition. Tumor growth of the combination treatment group is inhibited by about 94% when compared to that of the control group.

Row | Structure (SMILES) | tumor size compared to control [1] | difference in the tumor size between control and DTX-treatment group ([2]; Day 22) | tumor size compared to control ([2]; end of the time course)
1 | Nc1ccn([C@@H]2O[C@H](CO)[C@@H](O)C2(F)F)c(=O)n1 [Gemcitabine] | significantly lower than that in control |  | 
2 | CC(=O)O[C@@]12CO[C@@H]1C[C@H](O)[C@@]1(C)C(=O)[C@H](O)C3=C(C)[C@@H](OC(=O)[C@H](O)[C@@H](NC(=O)OC(C)(C)C)c4ccccc4)C[C@@](O)([C@@H](OC(=O)c4ccccc4)[C@H]21)C3(C)C [docetaxel] |  | ~54% | significantly lower than that in control
